Assay results reported in article PMC11887385 (Virology Journal, 2025).

Experiments:
[1] = test system: HIV-1NL4-3; assay: Time-of-addition; assay type: cell-based; settings: TZM-bl, MOI 0.5, read at 48 h
[2] = test system: HIV-1NL4-3; assay: Antiviral activity, TZM-bl reporter cells, F-Luc; assay type: cell-based
[3] = test system: HIV-1JRCSF; assay: Antiviral activity, TZM-bl reporter cells, F-Luc; assay type: cell-based; settings: Human immunodeficiency virus 1, TZM-bl, read-out: EC50 (1:5 dilution)
[4] = test system: HIV-1NL4-3 early and late RT products; assay: HIV-1 reverse transcripts in infected A3.01 cells, RT-qPCR; assay type: cell-based; settings: A3.01, 1 μM, 6 h
[5] = test system: HIV-1 K101P; assay: Antiviral activity on single RT mutant, TZM-bl F-Luc; assay type: cell-based; settings: Human immunodeficiency virus 1, TZM-bl
[6] = test system: HIV-1 12,231 (103N/179F/181C; 41L/215F); assay: Antiviral activity on resistant variant, TZM-bl F-Luc; assay type: cell-based; settings: Human immunodeficiency virus 1, TZM-bl
[7] = test system: HIV-1NL4-3 integrated proviral DNA; assay: Integrated proviral DNA in infected A3.01 cells, Alu-PCR; assay type: cell-based; settings: A3.01, 1 μM
[8] = test system: HIV-1 12,243 (100I/179D/230L; 41L/67G/74I); assay: Antiviral activity on resistant variant, TZM-bl F-Luc; assay type: cell-based; settings: Human immunodeficiency virus 1, TZM-bl
[9] = test system: HIV-1 K103N; assay: Antiviral activity on single RT mutant, TZM-bl F-Luc; assay type: cell-based; settings: Human immunodeficiency virus 1, TZM-bl
[10] = test system: HIV-1 G190A; assay: as above; assay type: cell-based; settings: Human immunodeficiency virus 1, TZM-bl
[11] = test system: HIV-1 G190S; assay: as above; assay type: cell-based; settings: Human immunodeficiency virus 1, TZM-bl
[12] = test system: TZM-bl cells; assay: Cell viability test; assay type: cell-based; settings: 48 h
[13] = Cell viability test; assay type: cell-based; settings: human, TZM-bl cells, CC50 (1:5 dilution)
[14] = Cell viability test; assay type: cell-based, human; settings: human, A3.01 cells
[15] = test system: A3.01 cells; assay: Cell viability test; assay type: cell-based, human; settings: A3.01
[16] = molecular target: HIV-1 integrase (Human immunodeficiency virus type 1 group M subtype B, UniProt P04585); assay: HIV-1 integrase assay kit; assay type: biochemical; settings: 10 µM
[17] = molecular target: recombinant HIV-1 RTase (Human immunodeficiency virus type 1 group M subtype B, UniProt P04585); assay: In vitro RTase assay; assay type: biochemical; settings: IC50 against RTase, 0.5 unit RTase, 1 h, 24 °C
[18] = test system: HIV-1 89.6; assay: Antiviral activity, TZM-bl reporter cells, F-Luc; assay type: cell-based; settings: Human immunodeficiency virus 1, TZM-bl, read-out: EC50 (1:5 dilution)
[19] = test system: HIV-1 12,227 (101P/103N; 41L/215Y); assay: Antiviral activity on resistant variant, TZM-bl F-Luc; assay type: cell-based; settings: Human immunodeficiency virus 1, TZM-bl
[20] = test system: HIV-1 7406 (190C; 41L/69S*/74 V/184 V/210W/215Y); assay: as above; assay type: cell-based; settings: Human immunodeficiency virus 1, TZM-bl
[21] = test system: HIV-1 G190C; assay: Antiviral activity on single RT mutant, TZM-bl F-Luc; assay type: cell-based; settings: Human immunodeficiency virus 1, TZM-bl
[22] = test system: Tat-mediated viral transcription of LTR; assay: Tat-mediated LTR transcription in bl-DTR cells; assay type: cell-based, HIV-1; settings: doxycycline, 24 h
[23] = test system: HIV-1 12,241 (101E/138G/190S); assay: Antiviral activity on resistant variant, TZM-bl F-Luc; assay type: cell-based; settings: Human immunodeficiency virus 1, TZM-bl
[24] = test system: HIV-1NL4-3-IRES-GFP proviral DNA; assay type: cell-based; settings: HEK293T, 48 h
[25] = test system: HIV-1 L100I; assay: Antiviral activity on single RT mutant, TZM-bl F-Luc; assay type: cell-based; settings: Human immunodeficiency virus 1, TZM-bl
[26] = test system: HIV-1JRCSF; assay: Viral replication in PBMCs, p24 […]; assay type: cell-based; settings: Human immunodeficiency virus 1, PBMC, read-out: EC50 (1:5 dilution)
[27] = test system: HIV-1 7407 (103N; 70R/115F); assay: Antiviral activity on resistant variant, TZM-bl F-Luc; assay type: cell-based; settings: Human immunodeficiency virus 1, TZM-bl
[28] = Cell viability test; assay type: cell-based; settings: human, PBMCs
[29] = test system: PBMCs; assay: Cell viability test; assay type: cell-based
[30] = test system: HIV-1NL4-3; assay: Viral replication in PBMCs, p24 […]; assay type: cell-based; settings: Human immunodeficiency virus 1, NL43, PBMC, read-out: EC50 (1:5 dilution)
[31] = test system: HIV-1NL4-3; assay: Viral replication in A3.01 T cells, p24 […]; assay type: cell-based; settings: Human immunodeficiency virus 1, NL43, T-cell, read-out: EC50 (1:5 dilution)
[32] = test system: HIV-1 7396 (41L/67N/69N/70R/215F); assay: Antiviral activity on resistant variant, TZM-bl F-Luc; assay type: cell-based; settings: Human immunodeficiency virus 1, TZM-bl
[33] = Human immunodeficiency virus 1, TZM-bl, 48 h
[34] = Human immunodeficiency virus 1, TZM-bl
[35] = Human immunodeficiency virus 1, NL43, TZM-bl, read-out: EC50 (1:5 dilution)

Molecule: CC(C)[C@]12O[C@H]1[C@@H]1O[C@]13[C@]1(O[C@H]1C[C@H]1C4=C(CC[C@@]13C)C(=O)OC4)[C@@H]2O [TPL, triptolide]
- time postinfection of addition at which the inhibitory effect disappeared [1]: 24 h

Molecule: CC(C)(C)c1cc([N+](=O)[O-])cc(C=O)c1O [compound 3, 3-tert-butyl-2-hydroxy-5-nitrobenzaldehyde]
- EC50 [2, 33]: 1.47 µM

Molecule: O=C(Nc1ccc(S(=O)(=O)O)c2ccccc12)c1ccc(=O)oc1 [compound 1, 4-(2-oxo-2H-pyran-5-carboxamido)naphthalene-1-sulfonic acid]
- EC50 [2, 33]: 8.48 µM

Molecule: Cc1cc(/C=C/C#N)cc(C)c1Nc1ccnc(Nc2ccc(C#N)cc2)n1 [RPV, rilpivirine]
- EC50 [2, 34]: 0.0007 µM

Molecule: Enfuvirtide [T20]
- time postinfection of addition at which the inhibitory effect disappeared [1]: 1 h

Molecule: CCc1cc(=O)oc2cc(OC(CC)C(=O)c3ccccc3)ccc12 (centres unmarked) [compound 2, 4-ethyl-7-((1-oxo-1-phenylbutan-2-yl)oxy)-2H-chromen-2-one]
- EC50 [2, 33]: 4.89 µM

Molecule: COc1cccc(C=NNC(=S)NN)c1OC [compound 4, 1-amino-3-[(2,3-dimethoxyphenyl)methylideneamino]thiourea]
- EC50 [2, 33]: 6.39 µM

Molecule: Cc1nn(C(C)c2nnc(Nc3ccn(Cc4ccccc4)n3)s2)c(C)c1Br (centres unmarked) [BPPT, N-(1-benzyl-1H-pyrazol-3-yl)-5-[1-(4-bromo-3,5-dimethyl-1H-pyrazol-1-yl)ethyl]-1,3,4-thiadiazol-2-amine]
- EC50 [3]: 0.16 ± 0.01 µM
- synthesis of viral cDNA, early and late stages of RT [4]: greatly inhibited
- EC50 [5]: 1.71 ± 0.03 µM
- EC50 [6]: > 50 µM
- integrated proviral DNA [7]: low level of integrated proviral DNA
- EC50 [8]: > 50 µM
- EC50 [9]: 0.88 ± 0.12 µM
- EC50 [10]: 0.07 µM
- EC50 [11]: 0.28 ± 0.05 µM
- no (severe) cytotoxicity up to [12]: > 250 µM
- CC50 [13]: > 50 µM
- EC50 [2, 34]: 0.06 µM
- CC50 [14]: > 50 µM
- no cytotoxicity up to [15]: > 50 µM
- integrase activity [16]: did not affect
- IC50 [17]: 0.14 µM
- EC50 [18]: 0.09 µM
- EC50 [19]: > 50 µM
- EC50 [20]: 0.35 ± 0.04 µM
- EC50 [21]: 0.29 ± 0.03 µM
- Tat-mediated viral transcription of LTR [22]: did not inhibit
- EC50 [23]: 4.57 ± 2.3 µM
- GFP signal and level of p24 in the supernatant from transfected cells [24]: not inhibited
- EC50 [25]: 3.5 ± 0.65 µM
- EC50 [26]: 0.04 ± 0.03 µM
- EC50 [27]: 19.7 ± 1.6 µM
- CC50 [28]: > 50 µM
- no cytotoxicity up to [29]: > 50 µM
- EC50 [30]: 0.08 ± 0.01 µM
- time postinfection of addition at which the inhibitory effect disappeared [1]: 6 h
- EC50 [31]: 0.16 ± 0.02 µM

Molecule: C[C@@H]1CCO[C@H]2Cn3cc(C(=O)NCc4ccc(F)cc4F)c(=O)c(O)c3C(=O)N12 [DTG, Dolutegravir]
- time postinfection of addition at which the inhibitory effect disappeared [1]: 8 h

Molecule: Cc1ccnc2c1NC(=O)c1cccnc1N2C1CC1 [NVP, nevirapine]
- EC50 [5]: 8.31 ± 0.6 µM
- EC50 [6]: > 50 µM
- EC50 [8]: 21.4 ± 2.21 µM
- EC50 [9]: 4.55 ± 0.27 µM
- EC50 [10]: 15.7 ± 2.73 µM
- EC50 [11]: 32.7 ± 4.49 µM
- CC50 [13]: > 50 µM
- EC50 [2, 35]: 0.08 ± 0.18 µM
- EC50 [2, 33]: 0.08 ± 0.02 µM
- EC50 [32]: 0.35 ± 0.07 µM
- EC50 [19]: > 50 µM
- EC50 [20]: > 50 µM
- EC50 [21]: 23.8 ± 3.31 µM
- EC50 [23]: > 50 µM
- EC50 [25]: 0.18 ± 0.04 µM
- EC50 [27]: > 50 µM

Molecule: Cc1nnc(C(=O)NC(C)(C)c2nc(C(=O)NCc3ccc(F)cc3)c(O)c(=O)n2C)o1 [RAL, raltegravir]
- time postinfection of addition at which the inhibitory effect disappeared [1]: 8 h

Molecule: Cc1cn([C@H]2C[C@H](N=[N+]=[N-])[C@@H](CO)O2)c(=O)[nH]c1=O [AZT, zidovudine]
- EC50 [5]: 0.04 µM
- EC50 [6]: 0.63 ± 0.19 µM
- EC50 [8]: 0.29 ± 0.01 µM
- EC50 [9]: 0.11 ± 0.01 µM
- EC50 [10]: 0.11 ± 0.01 µM
- EC50 [11]: 0.08 ± 0.01 µM
- EC50 [2, 33]: 0.29 ± 0.06 µM
- EC50 [32]: 3.83 ± 1.21 µM
- EC50 [19]: 1 ± 0.13 µM
- EC50 [20]: 15.1 ± 2.16 µM
- EC50 [21]: 0.05 ± 0.01 µM
- EC50 [23]: 0.08 ± 0.03 µM
- EC50 [25]: 0.07 ± 0.01 µM
- EC50 [27]: > 50 µM
- time postinfection of addition at which the inhibitory effect disappeared [1]: 2 h

Molecule: O=C1Nc2ccc(Cl)cc2[C@@](C#CC2CC2)(C(F)(F)F)O1 [EFV, efavirenz]
- EC50 [5]: 0.02 µM
- EC50 [6]: 0.18 ± 0.22 µM
- EC50 [9]: 0.04 ± 0.01 µM
- EC50 [10]: 0.01 µM
- EC50 [11]: 0.12 ± 0.01 µM
- CC50 [13]: 25.9 µM
- EC50 [2, 35]: 0.001 µM
- EC50 [2, 33]: 0.001 µM
- EC50 [32]: 0.001 µM
- EC50 [21]: 0.39 ± 0.09 µM
- EC50 [25]: 0.02 µM
- EC50 [27]: 0.35 ± 0.03 µM
